In patent publication US20130156753A1 (UNIVERSITY OF ROCHESTER, priority 2010, published 2013):

Tests used:
[1] = system: MEF2 transcriptional activity; experiment: 3xMEF2-luciferase reporter assay in NRVMs; assay type: cell-based, rat; conditions: PE 24 hours
Protocol: (§1) The mRNA was extracted from the cell lysates and then RT-PCR with the primers for ANF, β-MHC, α-SMA, and GADPH (internal control) was performed. *, p<0.05 versus PE+Ad-GFP; #, p<0.05 versus PE+GFP-HDAC5-WT, n=4.
To assess MEF2 and CREB transcriptional activation, an adenovirus was used that encoded a 3×MEF2-dependent reporter gene in which three tandem repeats of MEF2 sites were located upstream of the thymidine kinase gene promoter and plasmid encoding CREB-dependent reporter gene. NRVMs or Cos7 cells cultured in 24-well were co-transfected with 3×MEF2 or CREB luciferase reporter gene and adenovirus encoding LacZ or GFP-HDAC5-WT, GFP-HDAC5-S280A mutant and GFP-HDAC5-S280D mutant. […] The luciferase activities in cell lysates were determined using the Dual-Luciferase Reporter Assay kit (Promega) and Wallac 1420 multi-label counter (PerkinElmer) as described previously (4, 5).

HDAC5 nuclear export = experiment: PMA-induced GFP-HDAC5 nuclear export in Cos7 cells (fluorescence microscopy); assay type: cell-based
Protocol: A, B, Cos7 cells were co-transfected with expression vectors encoding GFP-tagged HDAC5 (GFP-HDAC5) and constitutively active protein kinases as indicated, and then exposed to phorbol-12-myristate-13-acetate (PMA, […]) for 3 hours. […] A-F, The cells were fixed and the subcellular localization of GFP-HDAC5 was visualized by fluorescence microscopy.
C, D, Cos7 cells were transfected with GFP-HDAC5-WT or GFP-HDAC5-S280D and then exposed to PMA for 3 hours. GFP-HDAC5-S280D but not GFP-HDAC5-WT was resistant to PMA-induced nuclear export. *, p<0.05 versus without PMA, n=4. E, F, Cos7 cells were transfected with Flag-HDAC5-WT or Flag-HDAC5-S280A mutant, and then pretreated with forskolin followed with the exposure to PMA. Phosphorylation of HDAC5 in cell lysates was analyzed by immunoblotting with phospho-specific HDAC5 antibodies that recognize the HDAC5 phosphorylated at Ser259 (E) and Ser498 (F). G, H, Cos7 cells were transfected with Flag-HDAC5-WT, Flag-HDAC5-S280A or Flag-HDAC5-S280D, and then pretreated with forskolin, followed with the exposure to PMA. Coimmunoprecipitation of Flag-HDAC5 in cell lysates and then immunoblotting with anti-14-3-3 beta and anti-Flag antibodies in immunoprecipitates were performed. 14-3-3 in total cell lysates (5% of the input) was determined by immunoblotting with anti-14-3-3 antibodies. Representative blots are shown, n=3.
The cells were fixed and GFP-HDAC5 localization was analyzed by fluorescence microscopy.
For analysis of GFP-HDAC5 subcellular localization in NRVMs and Cos7 cells, cells were plated in the presence of adenovirus (multiplicity of infection, 50 to 100) on 35 mm dishes containing DMEM plus 10% FBS as previously described (Vega R B, et al. (2004) Protein kinases C and D mediate agonist-dependent cardiac hypertrophy through nuclear export of histone deacetylase 5. Mol Cell Biol 24(19):8374-8385).
(§2) After 24 hour culture, cells were maintained in serum-free DMEM medium for additional 24 hours, and then exposed to various inducers or inhibitors (for 30 minutes) prior to PE or PMA stimulation for indicated times. The cells were washed with PBS and fixed with 3.7% formaldehyde in PBS. Images were captured at a magnification of ×60, using a fluorescence microscope (Olympus BX51) equipped with a digital camera and Spot software system (RT Color Diagnostic Instruments). For analysis of the myocyte marker, sarcomeric α-actinin antibody and DAPI in neonatal cardiomyocyte, immunocytochemistry were performed according to a standard protocol. For subcellular localization of endogenous HDAC5 in cardiomyocyes, we fixed cells and used the detergent Saponin (Sigma, 84510) to make cells permeable, and then performed immunocytochemistry with anti-HDAC5 antibody (Santa Cruz, sc-11419). For subcellular localization of HDAC5, total around 200 cells were counted in each condition. For cardiomyocyte size, total myocyte surface areas were calculated using NIH Image J software, and expressed as the average of 100 randomly selected cells per condition.

NRVMs = experiment: Cardiomyocyte hypertrophy (cell size, α-actinin immunostaining) in NRVMs; assay type: cell-based, rat
From the text: A-H, Cardiomyocyte size was detected by immunostaining with anti-α-actinin antibody. […] The cells were fixed and analyzed for GFP-HDAC5 localization, α-actinin staining and nuclear DAPI staining *, p<0.05 versus without PE; #, p<0.05 versus with PE alone. I, Schematic model for PKA-dependent regulation of HDAC5 subcellular localization and gene transcription.
Cardiomyocyte protein marker α-actinin was detected by immunofluorescence using antibody against α-actinin and fluorescein-conjugated secondary antibody.
as §2

[2] = system: ANF, β-MHC, α-SMA expression; experiment: RT-PCR of cardiac fetal gene expression in NRVMs; assay type: cell-based, rat; conditions: PE 24 hours
Protocol: as §1
The mRNA was extracted from the cell lysates, and quantitative RT-PCR with the primers for ANF and GADPH (internal control) were performed as described in the Examples. Quantitative data are shown (n=4).
Total RNA was isolated from NRVM using TRIzol (Invitrogen Corp.). Firststrand cDNA was synthesized with the SuperScript Preamplification System (Gibco-BRL). cDNA was amplified by PCR for 30 cycle (Applied Biosystem) as described previously (4, 5). Rat GAPDH served as an internal control. The following oligonucleotide primers were used in this study: rat ANF, sense 5′-[…]-3′ (SEQ ID NO:11) and antisense 5′-[…]-3′(SEQ ID NO:12) rat α-SMA, sense 5′-[…]-3′ (SEQ ID NO:13) and antisense 5′-[…]-3′ (SEQ ID NO:14); rat β-MHC (myosin heavy chain), sense 5′-[…]-3′ (SEQ ID NO:15) and antisense 5′-[…]-3′ (SEQ ID NO:16); rat GAPDH, sense 5′-[…]-3′ (SEQ ID NO:17) and antisense 5′-[…]-3′ (SEQ ID NO:18). Experiments were repeated three times.

CCCC(=O)Nc1ncnc2c1ncn2[C@@H]1O[C@@H]2COP(=O)(O)O[C@H]2[C@H]1OC(=O)CCC [cAMP, Dibutyryl-cAMP]
decrease in MEF2 transcriptional activation with HDAC5-S280A ([1]; NRVMs co-infected with adenoviral GFP-HDAC5-S280A): abolished the decrease in MEF2 transcriptional activation by cAMP | PE-stimulated MEF2 transcriptional activity ([1]; NRVMs with GFP alone or GFP-HDAC5-WT, 30 min pretreatment): significantly inhibited PE-stimulated MEF2 transcriptional activity | PMA-induced HDAC5 nuclear export (HDAC5 nuclear export; GFP-HDAC5-WT, pretreatment, then PMA for 3 hours): totally blocked HDAC5 nuclear export | PMA-induced nuclear export of GFP-HDAC5-S280A (HDAC5 nuclear export; S280A mutant, cAMP pretreatment, PMA 3 hours): inhibited nuclear export of GFP-HDAC5-WT but not GFP-HDAC5-S280A | size of cardiomyocytes after PE (NRVMs; NRVMs with GFP-HDAC5-WT, cAMP 30 min, PE 24 hours): decreased the size of cardiomyocytes | PE/Angiotensin II-induced cardiomyocyte hypertrophy (NRVMs; NRVMs, forskolin 10 μM, cAMP 500 μM, Rolipram 10 μM 30 min, PE or Angiotensin II 24 hours): inhibit PE/Angiotensin II-induced cardiomyocyte hypertrophy | PE-elevated expression of ANF, β-MHC and α-SMA ([2]; NRVMs with GFP-HDAC5-WT, cAMP pretreatment): blocked this elevated gene expression | PE-induced ANF expression (quantitative RT-PCR) ([2]; NRVMs, cAMP 30 min): decreases PE-induced ANF expression
